The target of one experiment is Pim3 kinase (Homo sapiens, UniProt Q86V86). Put plainly: Pim3 ATP depletion assay. The format is biochemical. The following applies: read-out: IC50 (μM) PIM3.
In a further experiment the target is Pim1 kinase (Homo sapiens, UniProt P11309). The experiment in a line: Pim1 ATP depletion assay.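 Further: Luciferase-luciferin luminescence readout of residual ATP after PIM1 transfers phosphate to a peptide substrate, 40 µM ATP added, reaction run to roughly half ATP consumption.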 The class given is biochemical. The following applies: Pim1 ATP depletion assay; read-out: IC50 (μM) PIM1.
Pim1 kinase, sequence (P11309 whole entry): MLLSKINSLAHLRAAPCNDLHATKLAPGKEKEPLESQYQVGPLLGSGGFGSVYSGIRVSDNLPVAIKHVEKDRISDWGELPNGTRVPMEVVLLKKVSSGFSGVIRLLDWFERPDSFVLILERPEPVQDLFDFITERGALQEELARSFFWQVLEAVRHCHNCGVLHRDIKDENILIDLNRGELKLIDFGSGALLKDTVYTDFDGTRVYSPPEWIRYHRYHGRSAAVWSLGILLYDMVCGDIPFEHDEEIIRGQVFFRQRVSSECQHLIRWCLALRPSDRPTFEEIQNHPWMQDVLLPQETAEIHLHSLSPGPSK
In another experiment the test system is HEL 92.1.7 cells. Put plainly: Cell proliferation assay (CellTiter-Glo), HEL 92.1.7. The format is cell-based. The following applies: Homo sapiens, read-out: EC50 (μM) HEL 92.1.7. The method, then:
HEL 92.1.7 cells (ATTC No. TIB-180, an erythroleukemia line derived from malignant peripheral blood), MV4-11 cells (ATCC No. CRL-9591, a human acute monocytic leukemia line) and PC3 cells (ATCC No. CRL-1435, a human prostatic adenocarcinoma line) were cultured in RPMI1640 supplemented with 10% FBS, sodium pyruvate and antibiotics. Cells were plated in the same medium at a density of 1000 cells per well into 96 well tissue culture plates, with outside wells vacant, on the day of assay.
Test compounds supplied in DMSO were diluted into DMSO at 500 times the desired final concentrations before dilution into culture media to 2 times final concentrations. Equal volumes of 2× compounds were added to the cells in 96 well plates and incubated at 37° C. for 3 days.
After 3 days plates were equilibrated to room temperature and equal volume of CellTiter-Glow Reagent (Promega) was added to the culture wells. The plates were agitated briefly and luminescent signal was measured with luminometer. The percent inhibition of the signal seen in cells treated with DMSO alone vs. cells treated with control compound was calculated and used to determine EC50 values (i.e., the concentration of a test compound that is required to obtain 50% of the maximum effect in the cells) for tested compounds, as shown in Example 763.

For experiment [1], the target named is T1, human full length PKCE enzyme (Homo sapiens, UniProt Q02156).
T1 construct: human full length PKCE enzyme purchased from InVitrogen; purchased InVitrogen
T1 sequence (Q02156 1-737): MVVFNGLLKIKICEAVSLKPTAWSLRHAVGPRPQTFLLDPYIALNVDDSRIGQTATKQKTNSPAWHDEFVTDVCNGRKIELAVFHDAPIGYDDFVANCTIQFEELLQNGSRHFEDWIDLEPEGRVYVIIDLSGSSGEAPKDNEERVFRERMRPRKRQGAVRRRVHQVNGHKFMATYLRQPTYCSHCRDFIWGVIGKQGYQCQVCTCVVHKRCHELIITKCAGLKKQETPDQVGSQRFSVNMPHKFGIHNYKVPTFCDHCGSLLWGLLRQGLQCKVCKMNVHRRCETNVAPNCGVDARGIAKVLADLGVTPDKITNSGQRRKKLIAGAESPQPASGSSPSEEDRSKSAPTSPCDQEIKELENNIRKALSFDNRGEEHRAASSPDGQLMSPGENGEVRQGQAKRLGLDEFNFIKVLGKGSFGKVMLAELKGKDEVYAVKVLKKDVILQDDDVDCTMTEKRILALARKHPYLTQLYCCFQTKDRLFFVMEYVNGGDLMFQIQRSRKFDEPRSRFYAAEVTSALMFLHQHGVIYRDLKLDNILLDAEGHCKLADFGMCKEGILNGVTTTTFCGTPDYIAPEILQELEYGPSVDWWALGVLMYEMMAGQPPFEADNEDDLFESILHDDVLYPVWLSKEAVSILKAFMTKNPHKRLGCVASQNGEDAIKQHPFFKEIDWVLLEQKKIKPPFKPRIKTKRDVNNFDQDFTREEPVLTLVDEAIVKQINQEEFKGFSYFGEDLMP
Put plainly: In vitro PKCE assay. The class given is biochemical. The following applies: 10 nM enzyme, 40 uM peptide substrate, 20 uM ATP, KinaseGlo Plus readout; read-out: PKCε IC50.

Another experiment concerns the target Pim2 kinase (Homo sapiens, UniProt Q9P1W9). The experiment in a line: Pim2 ATP depletion assay.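 Further: Luciferase-based luminescent readout of ATP remaining after PIM2 phosphorylates a BAD peptide, final 5 nM enzyme, 4 µM ATP, 10 µM peptide, 2.5% DMSO, run to roughly half ATP consumption.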 The class given is biochemical. The following applies: read-out: IC50 (μM) PIM2.

Pim2 kinase, sequence (Q9P1W9 whole entry): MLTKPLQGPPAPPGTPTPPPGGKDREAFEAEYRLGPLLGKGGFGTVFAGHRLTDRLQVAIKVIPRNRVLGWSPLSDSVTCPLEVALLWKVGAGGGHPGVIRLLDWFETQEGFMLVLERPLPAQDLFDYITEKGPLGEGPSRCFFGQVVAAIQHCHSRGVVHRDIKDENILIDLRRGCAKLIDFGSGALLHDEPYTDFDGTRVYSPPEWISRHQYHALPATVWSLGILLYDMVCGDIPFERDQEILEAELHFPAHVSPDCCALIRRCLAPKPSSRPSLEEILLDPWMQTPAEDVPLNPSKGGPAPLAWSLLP

Turning to `Nc1ncc(Br)nc1C(=O)Nc1[nH]c(=O)ncc1-c1cccs1` [Example 142, 3-amino-6-bromo-N-[2-oxo-5-(2-thienyl)-2,3-dihydro-pyrimidin-4-yl]pyrazine-2-carboxamide], the IC50 on Pim3 kinase was below 1 µM; on Pim1 kinase, below 1 µM; in experiment [1], 1000 to 10000 nM; on Pim2 kinase it was below 1 µM. Besides, the EC50 in the experiment with HEL 92.1.7 cells fell in the range of 1 to 5 µM.
As to `Nc1ncc(Br)nc1C(=O)Nc1[nH]c(=O)ncc1-c1nccs1` [Example 143, 3-amino-6-bromo-N-[2-oxo-5-(1,3-thiazol-2-yl)-2,3-dihydro-pyrimidin-4-yl]pyrazine-2-carboxamide], the IC50 on Pim3 kinase was below 1 µM; at Pim1 kinase, below 1 µM; in experiment [1], above 25000 nM; at Pim2 kinase, below 1 µM. In addition, the EC50 in the experiment on HEL 92.1.7 cells was in the range of 1 to 5 µM.
Take `Nc1ncc(Br)nc1C(=O)Nc1[nH]c(=O)ncc1-c1ccccn1` [Example 145, 3-amino-6-bromo-N-(2-oxo-5-pyridin-2-yl-2,3-dihydro-pyrimidin-4-yl)pyrazine-2-carboxamide]: the 50% inhibitory concentration (IC50) is below 1 µM on Pim3 kinase, below 1 µM at Pim1 kinase, above 25000 nM in experiment [1] and below 1 µM on Pim2 kinase. For the same compound, the EC50 with HEL 92.1.7 cells lay within 1 to 5 µM.
Take `Nc1nccnc1C(=O)Nc1[nH]c(=O)ncc1N1CCCC(C(F)(F)F)C1` (centres unmarked) [Example 146, 3-amino-N-{2-oxo-5-[3-(trifluoromethyl)piperidin-1-yl]-2,3-dihydropyrimidin-4-yl}-pyrazine-2-carboxamide]: the IC50 was below 1 µM on Pim3 kinase, below 1 µM on Pim1 kinase, below 1000 nM in experiment [1] and below 1 µM at Pim2 kinase. For the same compound, the EC50 in the experiment with HEL 92.1.7 cells is above 10 µM.
Take `Nc1ncc(Br)nc1C(=O)Nc1[nH]c(=O)ncc1N1CCCC(C(F)(F)F)C1` (centres unmarked) [Example 147, 3-amino-6-bromo-N-{2-oxo-5-[3-(trifluoromethyl)piperidin-1-yl]-2,3-dihydropyrimidin-4-yl}-pyrazine-2-carboxamide]: the IC50 is below 1 µM on Pim3 kinase, below 1 µM at Pim1 kinase, below 1000 nM in experiment [1] and below 1 µM on Pim2 kinase. The EC50 with HEL 92.1.7 cells fell in the range of 5 to 10 µM.
With `Nc1nc(N)c(C(=O)Nc2[nH]c(=O)ncc2N2CCCC(C(F)(F)F)C2)nc1Cl` (centres unmarked) [Example 148, 3,5-diamino-6-chloro-N-{2-oxo-5-[3-(trifluoromethyl)piperidin-1-yl]-2,3-dihydropyrimidin-4-yl}pyrazine-2-carboxamide], the IC50 at Pim3 kinase was below 1 µM; on Pim1 kinase, below 1 µM; in experiment [1], 10000 to 25000 nM; on Pim2 kinase it was below 1 µM. Moreover, in the experiment on HEL 92.1.7 cells, the EC50 was above 10 µM.
Take `Nc1ncc(Br)nc1C(=O)Nc1[nH]c(=O)ncc1N1CCC(F)CC1` [Example 150, 3-amino-6-bromo-N-[5-(4-fluoropiperidin-1-yl)-2-oxo-2,3-dihydropyrimidin-4-yl]pyrazine-2-carboxamide]: the IC50 at Pim3 kinase was below 1 µM; on Pim1 kinase it was below 1 µM; in experiment [1], 1000 to 10000 nM; on Pim2 kinase, below 1 µM. Further, the EC50 in the experiment with HEL 92.1.7 cells was 1 to 5 µM.
For `Nc1nc(N)c(C(=O)Nc2[nH]c(=O)ncc2N2CCC(F)CC2)nc1Cl` [Example 151, 3,5-diamino-6-chloro-N-[5-(4-fluoropiperidin-1-yl)-2-oxo-2,3-dihydropyrimidin-4-yl]pyrazine-2-carboxamide], the IC50 at Pim3 kinase was below 1 µM; on Pim1 kinase it was below 1 µM; in experiment [1], above 25000 nM; on Pim2 kinase it was below 1 µM. Besides, in the experiment on HEL 92.1.7 cells, the EC50 was above 10 µM.
Turning to `Nc1nccnc1C(=O)Nc1cnccc1N1CCC[C@@H](N)C1` [Example 177, 3-amino-N-{4-[(3R)-3-amino-piperidin-1-yl]pyridin-3-yl}pyrazine-2-carboxamide], the IC50 on Pim3 kinase was below 1 µM; in experiment [1], below 1000 nM; at Pim2 kinase it was below 1 µM. The EC50 in the experiment on HEL 92.1.7 cells is above 10 µM.

The values are drawn from patent publication US20140249135A1, “PIM KINASE INHIBITORS AND METHODS OF THEIR USE” (NOVARTIS AG, priority 2007, published 2014).
